Experimental data published in article PMC3743770, “A Selective HDAC 1/2 Inhibitor Modulates Chromatin and Gene Expression in Brain and Alters Mouse Behavior in Two Mood-Related Tests” (PLoS ONE, 2013).
Read-outs that look alike come from different tables or passages of the source.

Tests used:
[1] = Mouse brain pharmacokinetics; format: in vivo
Protocol: Plasma, brain samples, and dose formulations, were analyzed as previously described using high performance liquid chromatography/mass spectrometry. Data acquisition and control system were created using Analyst 1.4 software (ABI Inc, Canada).

C57BL/6 mice [2] = test: Amphetamine-induced hyperlocomotion (AIH); format: in vivo, mouse; conditions: chronic i.p.; Cpd-60 45 mg/kg, SAHA 25 mg/kg; vs vehicle; amphetamine 3.5 mg/kg
Protocol: (§1) Compounds were administered between 9 am and 1 pm for 7 days prior to the start of behavioral testing, and after completion of each daily session during behavioral testing. Testing was performed 18–24 hr after the previous treatment to avoid transient effects. Amphetamine-induced hyperlocomotion (AIH) was performed as previously described on days 7–9 of treatment with activity measured before and after amphetamine challenge (AccuScan Instruments, Inc.). Forced-swim test (FST) behavior was performed as previously described on day 10 of treatment and total time spent immobile during a 6 min session was scored automatically (Ethovision; Noldus). Treatment effects were analyzed by one way analysis of variance (ANOVA) with post hoc analysis using Least Squared Differences test (SPSS v18.0 IBM).

[3] = system: H4K12 acetylation in HEK293 cells; test: H4K12 acetylation western blot, constant exposure and washout; format: cell-based, human
Protocol: Frozen mouse brains (n = 6/treatment group) were rapidly dissected at 4°C to isolate frontal cortex (including PFC), ventral striatum (including NAc), and HIP for protein extraction. […] Solutions for protein extraction were supplemented with 5 mM sodium butyrate to suppress residual HDAC activity. […] Densitometric quantification was performed using Image J software (NIH) and statistical comparison to vehicle-treated controls by two-tailed t-test.
Protein was extracted by douncing in suspension buffer: 0.1 M NaCl, 0.01 M TrisCl (ph7.6), 0.001 M EDTA (pH 8.0), then immediately diluted with an equal volume of 2x SDS-gel loading buffer: 100 mM TrisCl (ph 6.8), 4% SDS, 20% glycerol, 200 mM DTT. […] Media was aspirated and cells collected for Western blotting using 40 μL buffers as detailed above for mouse brain. Solutions for protein extraction were supplemented with 5 mM sodium butyrate to suppress residual HDAC activity. Samples were denatured at 95°C for 5 min, passaged 3x through a 25 gauge needle and centrifuged at 10,000g for 10 min at room temperature and protein quantification performed using a BCA protein assay kit #23225 (Pierce). […] Chemiluminescent detection of immunoreactivity was performed using SuperSignal West Dura Substrate #34076 (Pierce) with subsequent densitometric quantification using Image J software (NIH) and statistical comparison to vehicle-treated controls by two-tailed t-test.

C57BL/6 mice [4] = test: Forced-swim test (FST); format: in vivo, mouse
Protocol: as §1

[5] = system: transcripts in PFC, NAc and HIP; test: Whole genome transcript profiling of brain regions (microarray); format: in vivo, mouse
Protocol: Frozen mouse brains (n = 6/treatment group) were rapidly dissected at 4°C to isolate medial prefrontal cortex (PFC), nucleus accumbens (NAc) and hippocampus (HIP) for mRNA extraction. Whole genome transcript profiling was performed using the Illumina MouseWG-6 Expression BeadChip with subsequent validation by quantitative real-time PCR (qPCR) and is available online at the NCBI Gene Expression Omnibus repository (GSE47452).
Frozen mouse brains (n = 6/ treatment group) were rapidly dissected at 4°C, isolating medial prefrontal cortex, nucleus accumbens and hippocampus. […] For microarray experiments on Illumina MouseWG-6 BeadChips, RNA samples were pooled from two biological replicates such that the total number of samples was 27 (3 treatment groups x 3 brain regions x 3 RNA pools representing two mice per pool). All microarray analysis and gene set analysis (GSA) was performed using GeneSpring software (v.11.5.1) with raw signals adjusted using quantile normalization and baseline transformation with the median signal in all samples set to zero. Data were included in subsequent analyses if the normalized signal, thresholded at 0.8, was ‘present’ for 3 of 3 replicates for like treatment and tissue groups. […] Primer sequences for qPCR validation were designed using NCBI PRIMER-BLAST (Table S2).

[6] = system: transcripts in whole brain; conditions: chronic lithium, ref McQuillin et al, 2007; cited from earlier work
C57BL/6 mice [7] = conditions: 85 mg/kg i.p.; cited from earlier work

O=C(CCCCCCC(=O)Nc1ccccc1)NO [SAHA, suberoylanilide hydroxamic acid]
half-life ([1]; C57BL/6, mouse, brain, ip, read-out: brain T1/2 (converted)): 26.4 min | time until cleared from the brain ([1]; systemic treatment): ≤ 2 h | reduction of amphetamine-induced hyperlocomotion (C57BL/6 mice [2]): no effect | H4K12ac levels after washout ([3]; HEK293, 20 µM 24 hr, then 6 hr after media change): only Cpd-60-treated cells showed persistent increases in H4K12ac | H4K12ac levels, constant exposure ([3]; HEK293, 20 µM for 24 hr): elevated H4K12ac levels | reduction in immobility time (C57BL/6 mice [4]; chronic i.p., day 10, Cpd-60 45 mg/kg, SAHA 25 mg/kg, vs vehicle): did not influence mouse behavior in either paradigm | overlap with the 121 transcripts modulated by lithium ([5]; Gene Set Enrichment Analysis): no significant overlap | transcripts altered across the three regions ([5]; PFC, NAc, HIP compiled, ≥[…] vs vehicle): 288 | transcripts up- or down-regulated, summed across the three brain regions ([5]; Tukey's HSD p<0.05 vs vehicle): 1530 | downregulated transcripts HIP (total) ([5]; ≥[…], post hoc p<0.05): 148 | downregulated transcripts NAc (total) ([5]; ≥[…], post hoc p<0.05): 16 | downregulated transcripts PFC (total) ([5]; ≥[…], post hoc p<0.05): 5 | upregulated transcripts HIP (total) ([5]; ≥[…], post hoc p<0.05): 104 | upregulated transcripts NAc (total) ([5]; ≥[…], post hoc p<0.05): 5 | upregulated transcripts PFC (total) ([5]; ≥[…], post hoc p<0.05): 7

CNCCCN1c2ccccc2CCc2ccccc21 [desipramine]
reduction in immobility time (C57BL/6 mice [4]; 15 mg/kg i.p., n = 16/group, data not shown): 55%

[Li] [lithium]
Agxt2l1 fold change [6]: 2.73 fold change | Igfbp5 fold change [6]: -1.56 fold change | Mef2c fold change [6]: -1.22 fold change | Mfsd2 fold change [6]: 2.65 fold change | Nrxn1 fold change [6]: -1.18 fold change | Per2 fold change [6]: 2.47 fold change | Qdpr fold change [6]: -1.46 fold change | Sgk1 fold change [6]: 2.85 fold change | Sult1a1 fold change [6]: 6.28 fold change | Tsc22d3 fold change [6]: 1.95 fold change | Usp54 fold change [6]: 1.57 fold change | reduction in immobility time (C57BL/6 mice [7]): 48%
